Source: patent US20250049033A1, “PESTICIDALLY ACTIVE PYRIDAZINONE COMPOUNDS” (SYNGENTA CROP PROTECTION AG, priority 2021, published 2025)

How the values were obtained:
Assay type in all cases: in vivo
Diabrotica balteata = experiment: Activity against Diabrotica balteata (corn root worm), maize sprouts, L2 larvae; conditions: 96 h, application rate 200 ppm, 4 days after infestation, vs untreated, read-out: control in at least one of the two categories (mortality or growth inhibition)
Procedure: Example B2: Activity Against Diabrotica balteata (Corn Root Worm)
Maize sprouts placed onto an agar layer in 24-well microtiter plates were treated with aqueous test solutions prepared from 10′000 ppm DMSO stock solutions by spraying. After drying, the plates were infested with L2 larvae (6 to 10 per well). The samples were assessed for mortality and growth inhibition in comparison to untreated samples 4 days after infestation.

Euschistus heros = experiment: Activity against Euschistus heros (neotropical brown stink bug), soybean leaves, N2 nymphs; conditions: 120 h, application rate 200 ppm, 5 days after infestation, vs untreated, read-out: effect in at least one of the two categories (mortality or growth inhibition)
Procedure: Example B3: Activity Against Euschistus heros (Neotropical Brown Stink Bug)
Soybean leaves on agar in 24-well microtiter plates were sprayed with aqueous test solutions prepared from 10′000 ppm DMSO stock solutions. After drying the leaves were infested with N2 nymphs. The samples were assessed for mortality and growth inhibition in comparison to untreated samples 5 days after infestation.

Myzus persicae [1] = experiment: Activity against Myzus persicae (green peach aphid), feeding/contact activity; conditions: foliar, 144 h, application rate 200 ppm, 6 days after infestation, sunflower leaf discs, mixed ages
Procedure: Example B5: Activity Against Myzus persicae (Green Peach Aphid). Feeding/Contact Activity
Sunflower leaf discs were placed onto agar in a 24-well microtiter plate and sprayed with aqueous test solutions prepared from 10′000 ppm DMSO stock solutions. After drying, the leaf discs were infested with an aphid population of mixed ages. The samples were assessed for mortality 6 days after infestation.

Plutella xylostella = experiment: Activity against Plutella xylostella (diamond back moth), artificial diet, eggs; conditions: 192 h, application rate 200 ppm, 8 days after infestation, vs untreated, read-out: control in at least one of the two categories (mortality or growth inhibition)
Procedure: Example B7: Activity Against Plutella xylostella (Diamond Back Moth)
24-well microtiter plates with artificial diet were treated with aqueous test solutions prepared from 10′000 ppm DMSO stock solutions by pipetting. After drying, Plutella eggs were pipetted through a plastic stencil onto a gel blotting paper and the plate was closed with it. The samples were assessed for mortality and growth inhibition in comparison to untreated samples 8 days after infestation. The following compounds gave an effect of at least 80% control in at least one of the two categories (mortality or growth inhibition) at an application rate of 200 ppm: P1, P2, P3, P4, P6, P7, P8, P9, P10, P11, P12, P13, P14, P15, P16, P17, P18, P19, P20, P21, P22, P23, P24, P25, P26, P27.

Chilo suppressalis = experiment: Activity against Chilo suppressalis (striped rice stemborer), artificial diet, L2 larvae; conditions: 144 h, application rate 200 ppm, 6 days after infestation, vs untreated, read-out: control in at least one of the three categories (mortality, anti-feedant effect, or growth inhibition)
Procedure: Example B1: Activity Against Chilo suppressalis (Striped Rice Stemborer)
24-well microtiter plates with artificial diet were treated with aqueous test solutions prepared from 10′000 ppm DMSO stock solutions by pipetting. After drying, the plates were infested with L2 larvae (6-8 per well). The samples were assessed for mortality, anti-feeding effect, and growth inhibition in comparison to untreated samples 6 days after infestation. Control of Chilo suppressalis by a test sample is given when at least one of the categories mortality, anti-feedant effect, and growth inhibition is higher than the untreated sample.

Myzus persicae [2] = experiment: Activity against Myzus persicae (green peach aphid), intrinsic activity; conditions: 120 h, test rate 12 ppm, 5 days after infestation, sucrose solution through Parafilm
Text: Example B6: Activity Against Myzus persicae (Green Peach Aphid). Intrinsic Activity
Test compounds prepared from 10′000 ppm DMSO stock solutions were applied by pipette into 24-well microtiter plates and mixed with sucrose solution. The plates were closed with a stretched Parafilm. A plastic stencil with 24 holes was placed onto the plate and infested pea seedlings were placed directly on the Parafilm. The infested plate was closed with a gel blotting paper and another plastic stencil and then turned upside down. The samples were assessed for mortality 5 days after infestation.

Spodoptera littoralis = experiment: Activity against Spodoptera littoralis (Egyptian cotton leaf worm), cotton leaf discs, L1 larvae; conditions: foliar, 72 h, application rate 200 ppm, 3 days after infestation, vs untreated, read-out: control in at least one of the three categories (mortality, anti-feedant effect, or growth inhibition)
Procedure: Example B8: Activity Against Spodoptera littoralis (Egyptian Cotton Leaf Worm)
Cotton leaf discs were placed onto agar in 24-well microtiter plates and sprayed with aqueous test solutions prepared from 10′000 ppm DMSO stock solutions. After drying the leaf discs were infested with five L1 larvae. The samples were assessed for mortality, anti-feeding effect, and growth inhibition in comparison to untreated samples 3 days after infestation. Control of Spodoptera littoralis by a test sample is given when at least one of the categories mortality, anti-feedant effect, and growth inhibition is higher than the untreated sample.

CC(c1nccnc1-c1ccc(=O)n(C)n1)N(C)c1ncnc2c(Cl)cc(C(F)(F)F)cc12 (stereo not shown) [P12, 6-[3-[1-[[8-chloro-6-(trifluoromethyl)quinazolin-4-yl]-methyl-amino]ethyl]pyrazin-2-yl]-2-methyl-pyridazin-3-one]
≥ 80%: percent control (mortality or growth inhibition) at 200 ppm (Diabrotica balteata) | percent effect (mortality or growth inhibition) at 200 ppm (Euschistus heros) | mortality at 200 ppm (Myzus persicae [1]) | percent control (mortality or growth inhibition) at 200 ppm (Plutella xylostella) | percent control (mortality, anti-feedant effect or growth inhibition) at 200 ppm (Chilo suppressalis) | mortality at 12 ppm (Myzus persicae [2]) | percent control (mortality, anti-feedant effect or growth inhibition) at 200 ppm (Spodoptera littoralis)

CCn1nc(-n2ncnc2[C@H](C)N(C)c2ncnc3c(Cl)cc(C(F)(F)F)cc23)ccc1=O [P22, 6-[5-[(1S)-1-[[8-chloro-6-(trifluoro-methyl)quinazolin-4-yl]-methyl-amino]ethyl]-1,2,4-triazol-1-yl]-2-ethyl-pyrid-azin-3-one]
≥ 80%: percent control (mortality or growth inhibition) at 200 ppm (Diabrotica balteata) | percent effect (mortality or growth inhibition) at 200 ppm (Euschistus heros) | mortality at 200 ppm (Myzus persicae [1]) | percent control (mortality or growth inhibition) at 200 ppm (Plutella xylostella) | percent control (mortality, anti-feedant effect or growth inhibition) at 200 ppm (Chilo suppressalis) | mortality at 12 ppm (Myzus persicae [2]) | percent control (mortality, anti-feedant effect or growth inhibition) at 200 ppm (Spodoptera littoralis)

C[C@@H](c1ncnn1C1=NN(C)C(=O)CC1)N(C)c1ncnc2c(C(F)(F)F)cc(Cl)cc12 [P24]
≥ 80%: percent control (mortality or growth inhibition) at 200 ppm (Diabrotica balteata) | percent effect (mortality or growth inhibition) at 200 ppm (Euschistus heros) | mortality at 200 ppm (Myzus persicae [1]) | percent control (mortality or growth inhibition) at 200 ppm (Plutella xylostella) | percent control (mortality, anti-feedant effect or growth inhibition) at 200 ppm (Chilo suppressalis) | mortality at 12 ppm (Myzus persicae [2]) | percent control (mortality, anti-feedant effect or growth inhibition) at 200 ppm (Spodoptera littoralis)

C[C@H](Nc1ncnc2c(C(F)(F)F)cc(C(F)(F)F)cc12)c1ncnn1-c1ccc(=O)n(C)n1 [P3, 6-[5-[(1S)-1-[[6,8-bis(trifluoromethyl)quinazolin-4-yl]amino]ethyl]-1,2,4-triazol-1-yl]-2-methyl-pyridazin-3-one]
≥ 80%: percent control (mortality or growth inhibition) at 200 ppm (Diabrotica balteata) | percent effect (mortality or growth inhibition) at 200 ppm (Euschistus heros) | mortality at 200 ppm (Myzus persicae [1]) | percent control (mortality or growth inhibition) at 200 ppm (Plutella xylostella) | percent control (mortality, anti-feedant effect or growth inhibition) at 200 ppm (Chilo suppressalis) | mortality at 12 ppm (Myzus persicae [2]) | percent control (mortality, anti-feedant effect or growth inhibition) at 200 ppm (Spodoptera littoralis)

CCn1nc(-n2ncnc2[C@H](C)Nc2ncnc3c(C(F)(F)F)cc(Cl)cc23)ccc1=O [P19, 6-[5-[(1S)-1-[[6-chloro-8-(trifluoro-methyl)quinazolin-4-yl]amino]ethyl]-1,2,4-triazol-1-yl]-2-ethyl-pyridazin-3-one]
≥ 80%: percent control (mortality or growth inhibition) at 200 ppm (Diabrotica balteata) | percent effect (mortality or growth inhibition) at 200 ppm (Euschistus heros) | mortality at 200 ppm (Myzus persicae [1]) | percent control (mortality or growth inhibition) at 200 ppm (Plutella xylostella) | percent control (mortality, anti-feedant effect or growth inhibition) at 200 ppm (Chilo suppressalis) | mortality at 12 ppm (Myzus persicae [2]) | percent control (mortality, anti-feedant effect or growth inhibition) at 200 ppm (Spodoptera littoralis)

CCn1nc(-n2ncnc2[C@H](C)Nc2ncnc3c(Cl)cc(C(F)(F)F)cc23)ccc1=O [P17, 6-[5-[(1S)-1-[[8-chloro-6-(trifluoromethyl)quinazolin-4-yl]amino]ethyl]-1,2,4-triazol-1-yl]-2-ethyl-pyridazin-3-one]
≥ 80%: percent control (mortality or growth inhibition) at 200 ppm (Diabrotica balteata) | percent effect (mortality or growth inhibition) at 200 ppm (Euschistus heros) | mortality at 200 ppm (Myzus persicae [1]) | percent control (mortality or growth inhibition) at 200 ppm (Plutella xylostella) | percent control (mortality, anti-feedant effect or growth inhibition) at 200 ppm (Chilo suppressalis) | mortality at 12 ppm (Myzus persicae [2]) | percent control (mortality, anti-feedant effect or growth inhibition) at 200 ppm (Spodoptera littoralis)

C[C@H](Nc1ncnc2c(C(F)(F)F)cc(C(F)(F)F)cc12)c1ncnn1C1=NN(C)C(=O)CC1 [P7, 6-[5-[(1S)-1-[[6,8-bis(trifluoromethyl)quinazolin-4-yl]amino]ethyl]-1,2,4-triazol-1-yl]-2-methyl-4,5-dihydropyridazin-3-one]
≥ 80%: percent control (mortality or growth inhibition) at 200 ppm (Diabrotica balteata) | percent effect (mortality or growth inhibition) at 200 ppm (Euschistus heros) | mortality at 200 ppm (Myzus persicae [1]) | percent control (mortality or growth inhibition) at 200 ppm (Plutella xylostella) | percent control (mortality, anti-feedant effect or growth inhibition) at 200 ppm (Chilo suppressalis) | mortality at 12 ppm (Myzus persicae [2]) | percent control (mortality, anti-feedant effect or growth inhibition) at 200 ppm (Spodoptera littoralis)

CC(Nc1ncnc2c(C(F)(F)F)cc(C(F)(F)F)cc12)c1nccnc1-c1ccc(=O)n(C)n1 (stereo not shown) [P8, 6-[3-[1-[[6,8-bis-(trifluoromethyl)-quinazolin-4-yl]amino]ethyl]pyr-azin-2-yl]-2-meth-yl-pyridazin-3-one]
≥ 80%: percent control (mortality or growth inhibition) at 200 ppm (Diabrotica balteata) | percent effect (mortality or growth inhibition) at 200 ppm (Euschistus heros) | mortality at 200 ppm (Myzus persicae [1]) | percent control (mortality or growth inhibition) at 200 ppm (Plutella xylostella) | percent control (mortality, anti-feedant effect or growth inhibition) at 200 ppm (Chilo suppressalis) | mortality at 12 ppm (Myzus persicae [2]) | percent control (mortality, anti-feedant effect or growth inhibition) at 200 ppm (Spodoptera littoralis)

CC(c1nccnc1-c1ccc(=O)n(C)n1)N(C)c1ncnc2c(C(F)(F)F)cc(Cl)cc12 (racemic) [P21, 6-[3-[1-[[6-chloro-8-(trifluoromethyl)quinazolin-4-yl]-methyl-amino]ethyl]pyrazin-2-yl]-2-methyl-pyridazin-3-one]
≥ 80%: percent control (mortality or growth inhibition) at 200 ppm (Diabrotica balteata) | percent effect (mortality or growth inhibition) at 200 ppm (Euschistus heros) | mortality at 200 ppm (Myzus persicae [1]) | percent control (mortality or growth inhibition) at 200 ppm (Plutella xylostella) | percent control (mortality, anti-feedant effect or growth inhibition) at 200 ppm (Chilo suppressalis) | mortality at 12 ppm (Myzus persicae [2]) | percent control (mortality, anti-feedant effect or growth inhibition) at 200 ppm (Spodoptera littoralis)

C[C@H](Nc1ncnc2c(C(F)(F)F)cc(Cl)cc12)c1ncnn1C1=NN(C)C(=O)CC1 [P9, 6-[5-[(1S)-1-[[6-chloro-8-(trifluoro-methyl)quinazolin-4-yl]amino]ethyl]-1,2,4-triazol-1-yl]-2-methyl-4,5-di-hydropyridazin-3-one]
≥ 80%: percent control (mortality or growth inhibition) at 200 ppm (Diabrotica balteata) | percent effect (mortality or growth inhibition) at 200 ppm (Euschistus heros) | mortality at 200 ppm (Myzus persicae [1]) | percent control (mortality or growth inhibition) at 200 ppm (Plutella xylostella) | percent control (mortality, anti-feedant effect or growth inhibition) at 200 ppm (Chilo suppressalis) | mortality at 12 ppm (Myzus persicae [2]) | percent control (mortality, anti-feedant effect or growth inhibition) at 200 ppm (Spodoptera littoralis)
